Measured values from patent publication US20160318856A1, “Substituted Urea eIF2alpha Kinase Activators” (THE BRIGHAM AND WOMEN'S HOSPITAL, INC., priority 2013, published 2016).
Like-named read-outs stand apart in the source and are kept apart here.

Columns and labels:
[1] = system: eIF2α phosphorylation (eIF2•GTP•Met-tRNAi ternary complex; HRI activation); assay: surrogate dual luciferase eIF2α phosphorylation (ternary complex) assay; format: cell-based, human; conditions: for maximal fold induction: Homo sapiens, read-out: Emax (F/R)
Description: The dual luciferase expression vector and other plasmids used for these studies were previously described (see, for example, Ziegeler, G. et al. Journal of Biological Chemistry 2010, 285(20), 15408-19). The ternary complex assay, surrogate of eIF2α phosphorylation, has been described elsewhere (see, for example, Chen, T. et al. Nature Chemical Biology 2011, 7(9), 610-6). Briefly, the pBISA vector, which contains seven copies of the tetracycline-regulated transactivator response element (TRE), is flanked on both sides by minimal human cytomegalovirus (CMV) minimal promoters allowing bi-directional transcription and two MCSs (multiple cloning sites). Firefly and renilla luciferases were subcloned into MCS-I and MCS-II, respectively. This plasmid, designated pBISA-DL, transcribes two mRNAs that contain the 90 nucleotide plasmid derived 5′UTR (same sequence in both mRNAs), and the ORF encoding either firefly or renilla luciferase followed by a polyadenylation sequence. This plasmid was further modified by inserting the 5′UTR of ATF-4 mRNA into MCS-I in front of the firefly luciferase mRNA. Transcription from this unit generates an mRNA that contains the firefly luciferase ORF preceded by a 5′UTR composed of 90 nucleotides derived from the plasmid and 267 nucleotides derived from the 5′UTR of ATF-4 mRNA. Transcription from the other unit generates an mRNA that contains the renilla luciferase ORF proceeded only by the 90-nucleotide plasmid-derived sequence in the 5′UTR (pBISA-DL (ATF-4)) (see, for example, Chen, T. et al. Nature Chemical Biology 2011, 7(9), 610-6).
Cells expressing firefly and renilla luciferases were assayed with a dual glow luciferase assay kit, per manufacturer's instruction (Promega Inc., Madison, Wis.). The data calculations were carried out as the ratio of firefly to renilla luciferase signal.
A library of 1900 urea compounds was screened in the surrogate dual luciferase eIF2α phosphorylation (ternary complex) assay. This library was originally assembled and screened for inhibition of sEH by Hammock's group at UC-Davis (see, for example, Chen, T. et al. Nature Chem Biol 2011, 7, 610-616; Ziegeler, G et al. J Biol Chem 2010, 285, 15408-15419). We developed this assay in order to identify compounds that activate HRI, taking advantage of the fact that activated HRI phosphorylates eIF2α thereby reducing the amount of the eIF2•GTP•Met-tRNAi ternary complex that results in inhibition of translation of many mRNAs but paradoxically increases translation of some mRNAs that contain multiple upstream ORF (uORF) in their 5′ untranslated regions (UTRs). In our assay, firefly (F) luciferase mRNA is fused to 5′UTR of activating transcription factor 4 (ATF-4) mRNA that has multiple uORFs while renilla (R) luciferase mRNA is fused to a 5′UTR lacking any uORFs. Compounds that reduce the amount of the ternary complex, such as those activating HRI, would increase F luciferase expression while decreasing the R luciferase expression, resulting in an increased F/R luciferase ratio. To calculate the activity scores, the F/R ratios for every compound-treated wells were normalized to vehicle-treated (DMSO) wells that was arbitrarily set at 1 (F/R=1).

[2] = system: CRL-2813 human melanoma cancer cells; assay: cell proliferation (SRB) assay, CRL-2813; format: cell-based; conditions: read-out: IC50
Experimental: Cells were seeded in 96-well plates and maintained for 5 days in the presence of 0.5 to 20 μM of individual compound, and cell proliferation was measured by the sulforhodamine B (SRB) assay as described previously (see, for example, Palakurthi, S. S. et al. Cancer Research 2000, 60(11), 2919-2925). Briefly, at the end of a 5-day treatment, cells were fixed in 10% cold trichloroacetic acid. Cell number was estimated by measuring the remaining bound dye of sulforhodamine B after washing. The percentage of growth was calculated by using the equation: 100×[(T−T0)/(C−T0)], where T and C represent the absorbance in treated and control cultures at Day 5, and T0 at time zero, respectively. If T is less than T0, cell death has occurred and can be calculated from 100×[(T−T0)/T0].

[3] = ternary complex assay, F/R normalized to vehicle (DMSO = 1)
[4] = cell proliferation assay (SRB, 5 days), cell line not named in Table 1, values equal CRL-2813 values of Tables 5/8
[5] = cell proliferation assay, Table 2, cell line not named
[6] = Homo sapiens, CRL2813, 120 h, cell proliferation assay (SRB, 5 days), cell line not named in Table 1, values equal CRL-2813 values of Tables 5/8
[7] = surrogate eIF2α phosphorylation assay, Table 4
[8] = Homo sapiens, CRL2813, cell proliferation assay, Table 4, cell line not named

| SMILES | Emax (F/R) [1, 3] | IC50 [2, 4] | Emax (F/R) ([1]; 7.5 μM compound) | Emax (F/R) ([1]; 15 μM compound) | Emax (F/R) ([1]; 30 μM compound) | IC50 [2, 5] | also measured |
| --- | --- | --- | --- | --- | --- | --- | --- |
| COc1ccc(NC(=O)NC2CCC(Oc3ccc(F)cc3)CC2)cc1 (centres unmarked) [Compound I-8p] | 0.83 F/R | > 20 µM | – | – | – | – | – |
| O=C(Nc1cccc(F)c1)NC1CCC(Oc2ccc(F)cc2)CC1 (centres unmarked) [Compound I-1m] | 6.54 F/R | 8.3 ± 0.9 µM | – | – | – | – | – |
| O=C(Nc1ccc(C(=O)O)cc1)NC1CCC(Oc2ccc(F)cc2)CC1 (centres unmarked) [Compound I-12p] | 3.49 F/R | 11.6 ± 1.8 µM | – | – | – | – | – |
| CSc1ccc(NC(=O)N[C@H]2CC[C@H](OCc3c(F)cccc3F)CC2)cc1 [II-10p] | – | – | 0.94 F/R | 0.98 F/R | 1.07 F/R | > 20 µM | – |
| O=C(Nc1cccc(F)c1)N[C@H]1CC[C@H](OCc2c(F)cccc2F)CC1 [II-1m] | – | – | 0.72 F/R | 0.77 F/R | 0.67 F/R | > 20 µM | – |
| O=C(Nc1ccc(OC(F)(F)F)cc1)N[C@H]1CC[C@H](OCc2c(F)cccc2F)CC1 [II-6p] | – | – | 0.81 F/R | 0.80 F/R | 0.98 F/R | > 20 µM | – |
| CSc1ccc(NC(=O)NC2CCC(Oc3ccc(F)cc3)CC2)cc1 (centres unmarked) [Compound I-10p] | 1.07 F/R | > 20 µM | – | – | – | – | – |
| O=C(Nc1ccccc1I)NC1CCC(Oc2ccc(F)cc2)CC1 (centres unmarked) [Compound I-4o] | 3.25 F/R | > 20 µM | – | – | – | – | – |
| O=C(Nc1cccc([N+](=O)[O-])c1)N[C@H]1CC[C@H](OCc2c(F)cccc2F)CC1 [II-9m] | – | – | 0.96 F/R | 0.76 F/R | 0.94 F/R | > 20 µM | – |
| O=C(Nc1ccccc1[N+](=O)[O-])NC1CCC(Oc2ccc(F)cc2)CC1 (centres unmarked) [Compound I-9o] | 2.23 F/R | 3.5 ± 0.3 µM | – | – | – | – | – |
| O=C(Nc1cccc(Cl)c1)N[C@H]1CC[C@H](OCc2c(F)cccc2F)CC1 [II-2m] | – | – | 0.79 F/R | 0.78 F/R | 0.75 F/R | > 20 µM | – |
| O=C(Nc1ccc(Cl)cc1)NC1CCC(Oc2ccc(F)cc2)CC1 (centres unmarked) [Compound I-2p] | 1.65 F/R | > 20 µM | – | – | – | – | – |
| COC(=O)c1ccc(NC(=O)NC2CCC(Oc3ccc(F)cc3)CC2)cc1 (centres unmarked) [Compound I-11p] | 3.97 F/R | 11.6 µM | – | – | – | – | – |
| O=C(Nc1ccccc1Cl)N[C@H]1CC[C@H](OCc2c(F)cccc2F)CC1 [II-2o] | – | – | 0.81 F/R | 0.69 F/R | 0.81 F/R | > 20 µM | – |
| O=C(Nc1ccc([N+](=O)[O-])cc1)NC1CCC(Oc2ccc(F)cc2)CC1 (centres unmarked) [Compound I-9p] | 9.00 F/R | 2.3 ± 0.1 µM | – | – | – | – | – |
| O=C(Nc1cccc(I)c1)N[C@H]1CC[C@H](OCc2c(F)cccc2F)CC1 [II-4m] | – | – | 0.69 F/R | 0.75 F/R | 0.72 F/R | > 20 µM | – |
| O=C(Nc1ccc(C(F)(F)F)cc1)N[C@H]1CC[C@H](OCc2c(F)cccc2F)CC1 [II-5p] | – | – | 0.91 F/R | 0.79 F/R | 0.85 F/R | > 20 µM | – |
| O=C(Nc1ccc(Cl)cc1)N[C@H]1CC[C@H](OCc2c(F)cccc2F)CC1 [II-2p] | – | – | 0.95 F/R | 0.96 F/R | 0.74 F/R | > 20 µM | – |
| COC(=O)c1ccccc1NC(=O)NC1CCC(Oc2ccc(F)cc2)CC1 (centres unmarked) [Compound I-11o, methyl 2-(3-(4-(4-fluorophenoxy)cyclohexyl)ureido)benzoate] | – | – | – | – | – | – | maximal fold induction [1, 3]: 3.79; IC50 [2, 6]: 14.5 ± 1.6 µM |

| SMILES | Emax (F/R) [1, 3] | IC50 [2, 4] | Emax (F/R) ([1]; 7.5 μM compound) | Emax (F/R) ([1]; 15 μM compound) | Emax (F/R) ([1]; 30 μM compound) | IC50 [2, 5] | also measured |
| --- | --- | --- | --- | --- | --- | --- | --- |
| CSc1ccccc1NC(=O)N[C@H]1CC[C@H](OCc2c(F)cccc2F)CC1 [II-10o] | – | – | 0.82 F/R | 0.90 F/R | 0.83 F/R | > 20 µM | – |
| O=C(Nc1ccc(F)cc1)NC1CCC(Oc2ccc(F)cc2)CC1 (centres unmarked) [Compound I-1p] | 0.98 F/R | 20 ± 2.1 µM | – | – | – | – | – |
| Cc1ccccc1NC(=O)NC1CCC(Oc2ccc(F)cc2)CC1 (centres unmarked) [Compound I-7o] | 0.98 F/R | > 20 µM | – | – | – | – | – |
| COc1cccc(NC(=O)NC2CCC(Oc3ccc(F)cc3)CC2)c1 (centres unmarked) [Compound I-8m] | 3.81 F/R | 14 ± 1.3 µM | – | – | – | – | – |
| O=C(Nc1cccc(C(F)(F)F)c1)NC1CCCC(Oc2ccc(C(F)(F)F)cc2)C1 (centres unmarked) [III-6, 1-(3-(4-(Trifluoromethyl)phenoxy)cyclohexyl)-3-(3-(trifluoromethyl)phenyl)urea] | – | – | – | – | – | – | maximal fold induction [1, 7]: 4.52; IC50 [2, 8]: 3.8 ± 1.2 µM |
| COC(=O)c1cccc(NC(=O)NC2CCC(Oc3ccc(F)cc3)CC2)c1 (centres unmarked) [Compound I-11m] | 6.83 F/R | 9.2 ± 0.8 µM | – | – | – | – | – |
| Cc1cccc(NC(=O)NC2CCC(Oc3ccc(F)cc3)CC2)c1 (centres unmarked) [Compound I-7m] | 4.73 F/R | 14.4 ± 0.5 µM | – | – | – | – | – |
| O=C(Nc1ccccc1F)N[C@H]1CC[C@H](OCc2c(F)cccc2F)CC1 [II-1o] | – | – | 0.96 F/R | 0.98 F/R | 0.89 F/R | > 20 µM | – |
| O=C(Nc1cccc(Br)c1)NC1CCC(Oc2ccc(F)cc2)CC1 (centres unmarked) [Compound I-3m] | 9.52 F/R | 6.2 ± 0.3 µM | – | – | – | – | – |
| O=C(Nc1ccc(I)cc1)NC1CCC(Oc2ccc(F)cc2)CC1 (centres unmarked) [Compound I-4p] | 3.77 F/R | 10.2 ± 1.5 µM | – | – | – | – | – |
| O=C(Nc1ccc(Br)cc1)NC1CCC(Oc2ccc(F)cc2)CC1 (centres unmarked) [Compound I-3p] | 1.29 F/R | > 20 µM | – | – | – | – | – |
| CSc1cccc(NC(=O)NC2CCC(Oc3ccc(F)cc3)CC2)c1 (centres unmarked) [Compound I-10m] | 6.67 F/R | 11.1 ± 1.1 µM | – | – | – | – | – |
| O=C(Nc1ccccc1C(=O)O)NC1CCC(Oc2ccc(F)cc2)CC1 (centres unmarked) [Compound I-12o, 2-(3-(4-(4-fluorophenoxy)cyclohexyl)ureido)benzoic acid] | – | – | – | – | – | – | maximal fold induction [1, 3]: 1.2; IC50 [2, 6]: > 20 µM |
| Cc1ccc(NC(=O)N[C@H]2CC[C@H](OCc3c(F)cccc3F)CC2)cc1 [II-7p] | – | – | 0.81 F/R | 0.81 F/R | 0.77 F/R | > 20 µM | – |
| COC1CCC(NC(=O)Nc2cccc(C(F)(F)F)c2)CC1 (centres unmarked) [III-3, 1-(4-Methoxycyclohexyl)-3-(3-(trifluoromethyl)phenyl)urea] | – | – | – | – | – | – | maximal fold induction [1, 7]: 1.16; IC50 [2, 8]: > 20 µM |
| O=C(Nc1cccc([N+](=O)[O-])c1)NC1CCC(Oc2ccc(F)cc2)CC1 (centres unmarked) [Compound I-9m] | 7.47 F/R | 6.7 ± 0.7 µM | – | – | – | – | – |
| CSc1ccccc1NC(=O)NC1CCC(Oc2ccc(F)cc2)CC1 (centres unmarked) [Compound I-10o] | 0.92 F/R | > 20 µM | – | – | – | – | – |
| O=C(Nc1ccc(I)cc1)N[C@H]1CC[C@H](OCc2c(F)cccc2F)CC1 [II-4p] | – | – | 0.76 F/R | 0.82 F/R | 0.67 F/R | > 20 µM | – |
| O=C(Nc1cccc(Br)c1)N[C@H]1CC[C@H](OCc2c(F)cccc2F)CC1 [II-3m] | – | – | 1.07 F/R | 1.04 F/R | 0.98 F/R | > 20 µM | – |
